# Experimental data as given in paper PMC9838390, “Discovery and biosynthesis of karnamicins as angiotensin converting enzyme inhibitors” (Nature Communications, 2023).
# Values joined by “and” are separate entries in the source; they are usually repeats but may differ in a detail not shown here. Equal entries are not always repeated.
# Columns and labels:
# Format in all cases: biochemical, L. rhizosphaerae NEAU-A2
# KnmB1 [1] = experiment: Hydrogen peroxide formation assay of KnmB1 and variants; details: 30 °C, average of 3
# Procedure: (§1) Hydrogen peroxide formation assay and NADPH oxidation
# (§2) The hydrogen peroxide formed from KnmB1, KnmB2 and their variants were measured using the Hydrogen Peroxide Assay Kit (Beyotime Industrial Co. Ltd, Shanghai, China)4-5. 5–100 µL of enzyme reaction mixture was added to 100 µL of working reagent (S0038-1). The mixture was incubated for 30 min at 25 °C, at which time the absorbance at 560 nm was measured by NanoDrop 2000c (Fisher Scientific). […]
# (§3) Spectral data for new compounds […]
# (§4) Supplementary Figure 131. H2O2 generation and NADPH oxidation for KnmB2, KnmB1 and their variants. (a) Hydrogen peroxide formation of KnmB2 and variants. […]
# (b) Hydrogen peroxide formation of KnmB1 and variants. Reaction conditions: 100 µL system containing 50 mM Tris-HCl buffer (pH 7.5), 1 mM NADPH, 16 μM KnmB2, 17 μM KnmB1 or variants, 0.1 mM compound 24,1 mM SAM, and 2 […]
# (§5) (1 picture or pasted object on this page, not shown here) […]
# μM KnmF at 30 °C for 3h. (c) Hydrogen peroxide formation of KnmB1 and variants.
# Reaction conditions: 100µL system containing 50 mM Tris-HCl buffer (pH 7.5), 0.3 mM NADPH, and 6 μM KnmB1 or variants, or 0.1 mM 24 at 30 °C for 30 min. […]
# (§6) 2 μM KnmB2 or variants, or 0.1 mM substrate 24/32. […]
# (§7) Source data are provided as a Source Data file. […]
# KnmB1 [2] = experiment: NADPH oxidation of KnmB1 and variants (340 nm)
# Procedure: Hydrogen peroxide formation assay and NADPH oxidation […]
# NADPH detection was carried out in the cuvette by NanoDrop 2000c (Fisher Scientific). NADPH signal at 340 nm was monitored in time using 6220 M–1 cm–1 as […]
# as §3
# Reaction conditions: 50 mM Tris-HCl buffer (pH 7.5), 0.15 mM NADPH, and 2 μM KnmB1 or KnmB2. (e) NADPH oxidation of KnmB1 and variants. (f) NADPH oxidation of KnmB1 in the presence 24/32/36. (g) NADPH oxidation of KnmB1 and variants in the presence 24. Reaction conditions (e-g) for KnmB1 and their variants: 50 mM Tris-HCl buffer (pH 7.5), 0.15 mM NADPH, and 6 μM KnmB1 or variants, or 0.1 mM substrate 24/32/36. […]
# as §6, §7
# KnmB2 = experiment: Hydrogen peroxide formation assay of KnmB2 and variants
# Procedure: as §1, §2, §3, §4, §5
# H2O2 generation for KnmB2 and variants in the presence 24 or 32. Reaction conditions (h-j) for KnmB2 and their variants: 50 mM Tris-HCl buffer (pH 7.5), 0.15 mM NADPH, 2 μM KnmB2 or variants, or 0.1 mM substrate 24/32. Values are the means ± SD of n = 3 independent experiments, except for KnmB2+24 (T = 40 min), KnmB2-N219D+24 (T = 4 min), KnmB2-Y215F+24 (T= 1 min and 3 min) in i and j, and KnmB2+32 (T= 8 min) in j (n = 2). Source data are provided as a Source Data file. […]
structure (smiles),measurement,setting,value
CC(C)CCCCc1nc(-c2cc(O)cc(C(N)=O)n2)cs1 [Compound 24],"hydrogen peroxide formation of KnmB1 (absorbance UV λ=560 nm), average value","KnmB1 [1]; Fig. S131b, 1 mM NADPH, 17 μM KnmB1, 0.1 mM compound, 3 h",0.5214
same,"hydrogen peroxide formation of KnmB1 (absorbance UV λ=560 nm), average value","KnmB1 [1]; Fig. S131c, 0.3 mM NADPH, 6 μM KnmB1, 0.1 mM compound, 30 min",1.0442
same,effector action on reduction of flavin in KnmB1 by NADPH,"KnmB1 [2]; 0.15 mM NADPH, 6 μM KnmB1, 0.1 mM compound (Fig. S131f)",could act as a non-substrate effector
same,"NADPH oxidation of KnmB1 in the presence of compound (replicates 1, 2, 3)",KnmB1 [2]; Time 0,0.0000 µM
same,"NADPH oxidation of KnmB1 in the presence of compound, average value",KnmB1 [2]; Time 0,0.0000 µM
same,"NADPH oxidation of KnmB1 in the presence of compound (replicates 1, 2, 3)",KnmB1 [2]; Time 1,2.9582 µM and 2.2830 µM and 2.5080 µM
same,"NADPH oxidation of KnmB1 in the presence of compound, average value",KnmB1 [2]; Time 1,2.5831 µM
same,"NADPH oxidation of KnmB1 in the presence of compound (replicates 1, 2, 3)",KnmB1 [2]; Time 2,6.8489 µM and 4.6945 µM and 5.9164 µM
same,"NADPH oxidation of KnmB1 in the presence of compound, average value",KnmB1 [2]; Time 2,5.8199 µM
same,"NADPH oxidation of KnmB1 in the presence of compound (replicates 1, 2, 3)",KnmB1 [2]; Time 3,8.2797 µM and 6.4309 µM and 6.4630 µM
same,"NADPH oxidation of KnmB1 in the presence of compound, average value",KnmB1 [2]; Time 3,7.0579 µM
same,"NADPH oxidation of KnmB1 in the presence of compound (replicates 1, 2, 3)",KnmB1 [2]; Time 4,9.7106 µM and 8.7942 µM and 8.6174 µM
same,"NADPH oxidation of KnmB1 in the presence of compound, average value",KnmB1 [2]; Time 4,9.0407 µM
same,"NADPH oxidation of KnmB1 in the presence of compound (replicates 1, 2, 3)",KnmB1 [2]; Time 5,11.9293 µM and 10.4662 µM and 10.1447 µM
same,"NADPH oxidation of KnmB1 in the presence of compound, average value",KnmB1 [2]; Time 5,10.8467 µM
same,"NADPH oxidation of KnmB1 in the presence of compound (replicates 1, 2, 3)",KnmB1 [2]; Time 8,16.3826 µM and 16.8650 µM and 14.9839 µM
same,"NADPH oxidation of KnmB1 in the presence of compound, average value",KnmB1 [2]; Time 8,16.0772 µM
same,"NADPH oxidation of KnmB1 in the presence of compound (replicates 1, 2, 3)",KnmB1 [2]; Time 10,19.9679 µM and 20.5788 µM and 17.6688 µM
same,"NADPH oxidation of KnmB1 in the presence of compound, average value",KnmB1 [2]; Time 10,19.4051 µM
same,"NADPH oxidation of KnmB1 in the presence of compound (replicates 1, 2, 3)",KnmB1 [2]; Time 15,26.9614 µM and 30.3537 µM and 23.0064 µM
same,"NADPH oxidation of KnmB1 in the presence of compound, average value",KnmB1 [2]; Time 15,26.7739 µM
same,"NADPH oxidation of KnmB1 in the presence of compound (replicates 1, 2, 3)",KnmB1 [2]; Time 20,35.3859 µM and 38.9550 µM and 30.1286 µM
same,"NADPH oxidation of KnmB1 in the presence of compound, average value",KnmB1 [2]; Time 20,34.8232 µM
same,"NADPH oxidation of KnmB1 in the presence of compound (replicates 1, 2, 3)",KnmB1 [2]; Time 30,48.2476 µM and 54.0515 µM and 41.3344 µM
same,"NADPH oxidation of KnmB1 in the presence of compound, average value",KnmB1 [2]; Time 30,47.8778 µM
same,"NADPH oxidation of KnmB1 in the presence of compound (replicates 1, 2, 3)",KnmB1 [2]; Time 40,59.6785 µM and 66.9936 µM and 50.7878 µM
same,"NADPH oxidation of KnmB1 in the presence of compound, average value",KnmB1 [2]; Time 40,59.1533 µM
same,"NADPH oxidation of KnmB1 in the presence of compound (replicates 1, 2, 3)",KnmB1 [2]; Time 60,78.3119 µM and 86.3505 µM and 66.4309 µM
same,"NADPH oxidation of KnmB1 in the presence of compound, average value",KnmB1 [2]; Time 60,77.0311 µM
same,"hydrogen peroxide formation of KnmB2 (absorbance UV λ=560 nm), average value","KnmB2; Fig. S131a, 1 mM NADPH, 16 μM KnmB2, 0.1 mM compound, 30 °C, 3 h, average of 3",0.5988
same,"H2O2 generation, average value","KnmB2; KnmB2+24, Time 0",0.0000 µM
same,"H2O2 generation, average value","KnmB2; KnmB2+24, Time 1",7.6218 µM
same,"H2O2 generation, average value","KnmB2; KnmB2+24, Time 2",12.4635 µM
same,"H2O2 generation, average value","KnmB2; KnmB2+24, Time 3",16.9204 µM
same,"H2O2 generation, average value","KnmB2; KnmB2+24, Time 4",22.1791 µM
same,"H2O2 generation, average value","KnmB2; KnmB2+24, Time 5",26.8239 µM
same,"H2O2 generation, average value","KnmB2; KnmB2+24, Time 8",38.8438 µM
same,"H2O2 generation, average value","KnmB2; KnmB2+24, Time 10",44.6588 µM
same,"H2O2 generation, average value","KnmB2; KnmB2+24, Time 15",53.6376 µM
same,"H2O2 generation, average value","KnmB2; KnmB2+24, Time 20",56.0339 µM
same,"H2O2 generation, average value","KnmB2; KnmB2+24, Time 30",65.5374 µM
same,"H2O2 generation, average value","KnmB2; KnmB2+24, Time 40",57.4770 µM
same,"H2O2 generation, average value","KnmB2; KnmB2+24, Time 60",60.9452 µM
same,"H2O2 generation, average value","KnmB2; KnmB2-N219D+24, Time 0",0.0000 µM
same,"H2O2 generation, average value","KnmB2; KnmB2-N219D+24, Time 2",1.0964 µM
same,"H2O2 generation, average value","KnmB2; KnmB2-N219D+24, Time 4",1.8460 µM
same,"H2O2 generation, average value","KnmB2; KnmB2-N219D+24, Time 5",1.9569 µM
same,"H2O2 generation, average value","KnmB2; KnmB2-N219D+24, Time 8",2.8926 µM
same,"H2O2 generation, average value","KnmB2; KnmB2-N219D+24, Time 10",3.8614 µM
same,"H2O2 generation, average value","KnmB2; KnmB2-N219D+24, Time 15",5.8462 µM
same,"H2O2 generation, average value","KnmB2; KnmB2-N219D+24, Time 20",7.3014 µM
same,"H2O2 generation, average value","KnmB2; KnmB2-N219D+24, Time 30",11.0201 µM
same,"H2O2 generation, average value","KnmB2; KnmB2-N219D+24, Time 40",14.2037 µM
same,"H2O2 generation, average value","KnmB2; KnmB2-N219D+24, Time 60",17.9462 µM
same,"H2O2 generation, average value","KnmB2; KnmB2-Y215F+24, Time 0",0.0000 µM
same,"H2O2 generation, average value","KnmB2; KnmB2-Y215F+24, Time 1",2.6203 µM
same,"H2O2 generation, average value","KnmB2; KnmB2-Y215F+24, Time 2",4.3765 µM
same,"H2O2 generation, average value","KnmB2; KnmB2-Y215F+24, Time 3",4.8322 µM
same,"H2O2 generation, average value","KnmB2; KnmB2-Y215F+24, Time 4",7.3420 µM
same,"H2O2 generation, average value","KnmB2; KnmB2-Y215F+24, Time 5",8.5825 µM
same,"H2O2 generation, average value","KnmB2; KnmB2-Y215F+24, Time 8",12.4110 µM
same,"H2O2 generation, average value","KnmB2; KnmB2-Y215F+24, Time 10",14.9169 µM
same,"H2O2 generation, average value","KnmB2; KnmB2-Y215F+24, Time 15",20.6983 µM
same,"H2O2 generation, average value","KnmB2; KnmB2-Y215F+24, Time 20",27.2428 µM
same,"H2O2 generation, average value","KnmB2; KnmB2-Y215F+24, Time 30",36.5225 µM
same,"H2O2 generation, average value","KnmB2; KnmB2-Y215F+24, Time 40",40.7285 µM
same,"H2O2 generation, average value","KnmB2; KnmB2-Y215F+24, Time 60",52.7400 µM
